Results as given in US10906916B2, “Thienopyrimidinones as ubiquitin-specific protease 7 inhibitors” (Valo Early Discovery, Inc., priority 2015, dated 2021).

These compounds were tested against T1, USP7 (construct USP7 (208-1102) 6*His) (Homo sapiens, UniProt Q93009) (assay: USP7 Assay (Ubiquitin-Rhodamine110 Assay)). Settings: Ub-Rh110 substrate 25 nM, enzyme 62.5 pM, 30 min preincubation; read-out: USP7_IC50.
T1 construct: USP7, construct USP7 (208-1102) 6*His, Viva Biotech; 6xHis; purchased Viva Biotech
T1 sequence (Q93009 208-1102): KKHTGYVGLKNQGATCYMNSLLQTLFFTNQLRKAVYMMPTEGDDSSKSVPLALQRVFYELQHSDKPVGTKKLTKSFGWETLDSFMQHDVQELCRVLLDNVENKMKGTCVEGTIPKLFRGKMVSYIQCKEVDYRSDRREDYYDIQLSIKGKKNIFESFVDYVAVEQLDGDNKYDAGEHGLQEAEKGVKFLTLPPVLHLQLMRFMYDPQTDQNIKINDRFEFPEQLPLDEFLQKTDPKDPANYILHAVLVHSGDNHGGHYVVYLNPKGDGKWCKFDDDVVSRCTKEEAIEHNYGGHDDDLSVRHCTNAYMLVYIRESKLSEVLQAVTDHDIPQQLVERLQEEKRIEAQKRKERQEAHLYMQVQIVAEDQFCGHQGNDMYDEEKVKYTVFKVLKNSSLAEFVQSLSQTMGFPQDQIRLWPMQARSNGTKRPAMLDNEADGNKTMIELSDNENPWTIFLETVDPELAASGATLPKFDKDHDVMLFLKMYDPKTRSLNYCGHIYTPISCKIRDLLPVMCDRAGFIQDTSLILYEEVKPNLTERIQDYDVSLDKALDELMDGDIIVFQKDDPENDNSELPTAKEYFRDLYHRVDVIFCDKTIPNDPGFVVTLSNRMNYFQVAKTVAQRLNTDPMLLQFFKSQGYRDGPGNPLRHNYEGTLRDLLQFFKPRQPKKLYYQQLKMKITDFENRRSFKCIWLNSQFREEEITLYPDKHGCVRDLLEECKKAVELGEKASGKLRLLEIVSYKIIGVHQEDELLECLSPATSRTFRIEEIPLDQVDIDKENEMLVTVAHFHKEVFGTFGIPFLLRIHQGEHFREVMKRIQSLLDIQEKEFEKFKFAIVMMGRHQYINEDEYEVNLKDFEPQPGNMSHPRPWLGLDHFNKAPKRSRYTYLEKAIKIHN
Type: biochemical
Protocol: Each assay was performed in a final volume of 15 μL in assay buffer containing 20 mM Tris-HCl (pH 8.0, (1M Tris-HCl, pH 8.0 solution; Corning 46-031-CM)), 1 mM GSH (L-Glutathione reduced; Sigma #G4251), 0.03% BGG (0.22 μM filtered, Sigma, #G7516-25G), and 0.01% Triton X-100 (Sigma, #T9284-10L). Nanoliter quantities of either an 8-point or 10-point, 3-fold serial dilution in DMSO was pre-dispensed into assay plates (Perkin Elmer, ProxiPlate-384 F Plus, #6008269) for a final test concentration range of either 25 μM to 11 nM or 25 μM to 1.3 nM, respectively. The final concentration of the enzyme (USP7, construct USP7 (208-1102) 6*His, Viva Biotech) in the assay was 62.5 pM. Final substrate (Ub-Rh110; Ubiquitin-Rhodamine 110, R&D Systems #U-555) concentration was 25 nM with [Ub-Rh110]<<Km. 5 μL of 2× enzyme was added to assay plates (pre-stamped with compound) preincubated with USP7 for 30 min and then 5 μL of 2× Ub-Rh110 was added to assay plates. Plates were incubated stacked for 20 min at room temperature before addition of 5 μL, of stop solution (final concentration of 1.0 mM citric acid in assay buffer (Sigma, #251275-500G)). Fluorescence was read on the Envision (Excitation at 485 nm and Emission at 535 nm; Perkin Elmer) or on the PheraSTAR (Excitation at 485 nm and Emission at 535 nm; BMG Labtech).
Data from USP7 Assay was reported as percent inhibition (inh) compared with control wells based on the following equation: % inh=1−((FLU−AveLow)/(AveHigh−AveLow)) where FLU=measured Fluorescence; AveLow=average Fluorescence of no enzyme control (n=16); and AveHigh=average Fluorescence of DMSO control (n=16). IC50 values were determined by curve fitting of the standard 4 parameter logistic fitting algorithm included in the Activity Base software package: IDBS XE Designer Model205. Data is fitted using the Levenburg Marquardt algorithm.

Row | Structure (SMILES) | IC50 [nM]
1 | CN(C)C/C=C/C(=O)NCCCCC(=O)N1CCC(O)(Cn2cnc3c(-c4ccc(F)cc4)csc3c2=O)CC1 [Compound I-11, (E)-4-(dimethylamino)-N-(5-(4-((7-(4-fluorophenyl)-4-oxothieno[3,2-d]pyrimidin-3(4H)-yl)methyl)-4-hydroxypiperidin-1-yl)-5-oxopentyl)but-2-enamide] | 1000 to 10000
2 | CN(C)C/C=C/C(=O)NCCCC(=O)N1CCC(O)(Cn2cnc3c(-c4ccc(F)cc4)csc3c2=O)CC1 [Compound I-12, (E)-4-(dimethylamino)-N-(4-(4-((7-(4-fluorophenyl)-4-oxothieno[3,2-d]pyrimidin-3(4H)-yl)methyl)-4-hydroxypiperidin-1-yl)-4-oxobutyl)but-2-enamide] | 1000 to 10000
3 | CC(CC(=O)N1CCC(O)(Cn2cnc3sccc3c2=O)CC1)c1ccccc1 (stereo not drawn) [Compound I-1, 3-((4-hydroxy-1-(3-phenylbutanoyl)piperidin-4-yl)methyl)thieno[2,3-d]pyrimidin-4(3H)-one] | 300 to 1000
4 | CC(CC(=O)N1CCC(O)(Cn2cnc3sc4c(c3c2=O)CCCC4)CC1)c1ccccc1 (stereo not drawn) [Compound I-2, 3-((4-hydroxy-1-(3-phenylbutanoyl)piperidin-4-yl)methyl)-5,6,7,8-tetrahydrobenzo[4,5]thieno[2,3-d]pyrimidin-4(3H)-one] | > 10000
5 | COc1ccc(C(=O)N2CCC(O)(Cn3cnc4c(-c5ccc(F)cc5)csc4c3=O)CC2)cc1 [Compound I-9, 7-(4-fluorophenyl)-3-((4-hydroxy-1-(4-methoxybenzoyl)piperidin-4-yl)methyl)thieno[3,2-d]pyrimidin-4(3H)-one] | 1000 to 10000
6 | CC(CC(=O)N1CCC(O)(Cn2cnc3sc4c(c3c2=O)CCC4)CC1)c1ccccc1 (stereo not drawn) [Compound I-3, 3-((4-hydroxy-1-(3-phenylbutanoyl)piperidin-4-yl)methyl)-3,5,6,7-tetrahydro-4H-cyclopenta[4,5]thieno[2,3-d]pyrimidin-4-one] | 1000 to 10000
7 | Cc1sc2ncn(CC3(O)CCN(C(=O)CC(C)c4ccccc4)CC3)c(=O)c2c1C (stereo not drawn) [Compound I-8, 3-((4-hydroxy-1-(3-phenylbutanoyl)piperidin-4-yl)methyl)-5,6-dimethylthieno[2,3-d]pyrimidin-4(3H)-one] | > 10000
8 | CCCc1cc2c(=O)n(CC3(O)CCN(C(=O)CC(C)c4ccccc4)CC3)cnc2s1 (stereo not drawn) [Compound I-4, 3-((4-hydroxy-1-(3-phenylbutanoyl)piperidin-4-yl)methyl)-6-propylthieno[2,3-d]pyrimidin-4(3H)-one] | 300 to 1000
9 | O=C(c1ccccc1)N1CCC(O)(Cn2cnc3c(-c4ccc(F)cc4)csc3c2=O)CC1 [Compound I-10, 3-((1-benzoyl-4-hydroxypiperidin-4-yl)methyl)-7-(4-fluorophenyl)thieno[3,2-d]pyrimidin-4(3H)-one] | 1000 to 10000
10 | CCc1cc2c(=O)n(CC3(O)CCN(C(=O)CC(C)c4ccccc4)CC3)cnc2s1 (stereo not drawn) [Compound I-7, 6-ethyl-3-((4-hydroxy-1-(3-phenylbutanoyl)piperidin-4-yl)methyl)thieno[2,3-d]pyrimidin-4(3H)-one] | < 300
11 | Cc1cc2c(=O)n(CC3(O)CCN(C(=O)CC(C)c4ccccc4)CC3)cnc2s1 (stereo not drawn) [Compound I-6, 3-((4-hydroxy-1-(3-phenylbutanoyl)piperidin-4-yl)methyl)-6-methylthieno[2,3-d]pyrimidin-4(3H)-one] | < 300
12 | CCC(CC(=O)N1CCC(O)(Cn2cnc3sccc3c2=O)CC1)c1ccccc1 (stereo not drawn) [Compound I-5, 3-((4-hydroxy-1-(3-phenylpentanoyl)piperidin-4-yl)methyl)thieno[2,3-d]pyrimidin-4(3H)-one] | 1000 to 10000
